In paper PMC5442763, “Selective Inhibition of ADAM17 Efficiently Mediates Glycoprotein Ibα Retention During Ex Vivo Generation of Human Induced Pluripotent Stem Cell‐Derived Platelets” (Stem Cells Translational Medicine, 2016):

Legend:
[1] = target: T1, human ADAM10 (Homo sapiens, UniProt O14672); assay: MMP and ADAM activity assay (fluorescence-based): ADAM10; format: biochemical; settings: cell-free fluorescence assay
T1 construct: purchased R&D Systems
Protocol: (§1) KP‐457 and GM‐6001 were tested for their ability to inhibit MMP‐ and ADAM‐catalyzed cleavage of substrates in a fluorescence‐based assay. Human ADAM17, ADAM10, and MMP17 were from R&D Systems (Minneapolis, MN, http://www.rndsystems.com), and human MMP1, MMP2, MMP3, MMP8, MMP9, MMP13, and MMP14 were from EMD Millipore. MMP1, MMP2, MMP8, MMP9, MMP13, and MMP17 were activated using p‐aminophenylmercuric acetate (Sigma‐Aldrich) before testing. Fluorogenic substrates for measuring activity of ADAM10 and ADAM17 [Nma‐[…](Dnp)r‐NH2, based on the cleavage site of TNF‐α]; MMP1, MMP9, MMP13, and MMP14 [Dnp‐P‐Cha‐GC(Me)HAK(N‐Me‐Abz)‐NH2]; MMP3 [MOCAc‐RPKPVE‐Nva‐WRK(Dnp)‐NH2]; and MMP2, MMP8, and MMP17 [MOCAc‐PLGL‐A2pr(Dnp)‐AR‐NH2] were all provided by Peptide Institute (Osaka, Japan, https://www.peptide.co.jp/en) and used as substrates. In addition, inhibitory activities were measured using LC/MS/MS with a GPIbα‐based substrate peptide ([…]), a C terminal‐based standard peptide ([…]), and an internal standard peptide ([…]). These peptides were synthetized by Scrum (Tokyo, Japan, http://www.scrum‐net.co.jp/english/top_en.htm).

[2] = target: T2, human MMP1 (Homo sapiens, UniProt P03956); assay: MMP and ADAM activity assay (fluorescence-based): MMP1; format: biochemical; settings: cell-free fluorescence assay
T2 construct: purchased EMD Millipore
Source text: as §1, with “Human” for “KP‐457 and GM‐6001 were tested for their ability to inhibit MMP‐ and ADAM‐catalyzed cleavage of substrates in a fluorescence‐based assay. Human”

[3] = target: T3, human MMP2 (Homo sapiens, UniProt P08253); assay: MMP and ADAM activity assay (fluorescence-based): MMP2; format: biochemical; settings: cell-free fluorescence assay
T3 construct: purchased EMD Millipore
Source text: as §1, with “Human” for “KP‐457 and GM‐6001 were tested for their ability to inhibit MMP‐ and ADAM‐catalyzed cleavage of substrates in a fluorescence‐based assay. Human”

[4] = target: T4, human MMP3 (Homo sapiens, UniProt P08254); assay: MMP and ADAM activity assay (fluorescence-based): MMP3; format: biochemical; settings: cell-free fluorescence assay
T4 construct: purchased EMD Millipore
Protocol: as §1

[5] = target: T5, human MMP8 (Homo sapiens, UniProt P22894); assay: MMP and ADAM activity assay (fluorescence-based): MMP8; format: biochemical; settings: cell-free fluorescence assay
T5 construct: purchased EMD Millipore
Source text: as §1, with “Human” for “KP‐457 and GM‐6001 were tested for their ability to inhibit MMP‐ and ADAM‐catalyzed cleavage of substrates in a fluorescence‐based assay. Human”

[6] = target: T6, human MMP14 (Homo sapiens, UniProt P50281); assay: MMP and ADAM activity assay (fluorescence-based): MMP14; format: biochemical; settings: cell-free fluorescence assay
T6 construct: purchased EMD Millipore
Protocol: as §1

[7] = target: T7, human MMP17 (Homo sapiens, UniProt Q9ULZ9); assay: MMP and ADAM activity assay (fluorescence-based): MMP17; format: biochemical; settings: cell-free fluorescence assay
T7 construct: purchased R&D Systems
Protocol: as §1

[8] = target: T8, Human ADAM17 (Homo sapiens, UniProt P78536); assay: Cleavage of GPIbα-based substrate peptide by ADAM17 (LC/MS/MS); format: biochemical; settings: GPIbα-based substrate peptide, LC/MS/MS; read-out: IC50, inhibition of C-terminal cleavage of the GPIbα sequence by ADAM17
T8 construct: purchased R&D Systems
Source text: as §1, with “Human” for “KP‐457 and GM‐6001 were tested for their ability to inhibit MMP‐ and ADAM‐catalyzed cleavage of substrates in a fluorescence‐based assay. Human”
(1 picture or pasted object on this page, not shown here)

[9] = test system: human washed platelets; assay: CCCP-induced GPIbα shedding from washed platelets; format: cell-based; settings: CCCP-treated human platelets
Protocol: (§2) Flow cytometric analysis was performed as previously described. Briefly, iPSC‐ and ESC‐derived MKs on days 22–24 and platelets in their supernatants were stained with combinations of antibodies for 30 minutes on ice (for MKs) or at room temperature (for platelets). Samples of MKs/platelets were then washed, diluted with staining medium (phosphate‐buffered saline containing 3% fetal bovine serum), and analyzed using flow cytometry (FACSAria; BD). Trucount tubes (BD) were used to quantify the MKs and platelets.
Washed platelets were prepared as described elsewhere.

[10] = test system: platelet aggregation; assay: Platelet aggregation induced by thrombin or collagen; format: cell-based
[11] = test system: imMKCL platelets; assay: GPIbα retention in imMKCL-derived platelets; format: cell-based, human
Protocol: imMKCL expansion and subsequent platelet production were performed as previously reported. Briefly, imMKCLs were cultured in the presence of doxycycline for self‐replication by the expression of three doxycycline‐regulated transgenes: c‐MYC, BMI1, and BCL‐XL. imMKCLs were subsequently cultured for 5 days in the absence of doxycycline to produce platelets by turning the transgenes off, with or without 15 µmol/l KP‐457.
as §2
Fig. S4. The inhibitory effect of KP-457 on GPIbα shedding in platelets derived from human ESCs and immortalized megakaryocyte progenitor cell lines (imMKCLs).
Percentages of GPIbα-expressing CD41a+ platelets produced from human ESCs (A) and immortalized megakaryocyte progenitor cell lines (imMKCLs) (B), in the absence or presence of KP-457 (15 µmol/L). * P < 0.05 compared to the vehicle group by student’s t test, N≧3. […]

[12] = test system: iPSC platelets, vWF/GPIbα-dependent aggregation; assay: Flow cytometry-based platelet aggregation assay (ristocetin); format: cell-based, human; settings: 15 µmol/l KP-457 during generation; 2 mg/ml ristocetin; vs. generated in its absence
Protocol: Flow cytometry platelet aggregation assays were performed as recently described. Aliquots of iPSC platelets, imMKCL platelets, or fresh washed human platelets were stained with anti‐CD9‐APC or anti‐CD9‐V450, and CD41a^+ platelets were counted using flow cytometry. Next, aliquots of platelets stained using anti‐CD9‐APC were mixed with platelets stained using anti‐CD9‐V450 at a 1:1 ratio (1–4 ×10^5 cells/ml each) and suspended in Tyrode‐HEPES solution containing […] PPACK (a thrombin inhibitor), 10% filtered human plasma, and 3 mmol/l CaCl2. The mixed platelets were stimulated with 2 mg/ml ristocetin or 100 µmol/l TRAP6 and 50 µmol/l ADP for 10 minutes at 37°C while swirling, fixed, and analyzed using flow cytometry. To quantify platelet aggregation, an index of double‐colored events (%) was calculated using the following formula described elsewhere: […]

[13] = Good laboratory practice genotoxicity studies; settings: data not shown

T2 sequence (P03956 100-469): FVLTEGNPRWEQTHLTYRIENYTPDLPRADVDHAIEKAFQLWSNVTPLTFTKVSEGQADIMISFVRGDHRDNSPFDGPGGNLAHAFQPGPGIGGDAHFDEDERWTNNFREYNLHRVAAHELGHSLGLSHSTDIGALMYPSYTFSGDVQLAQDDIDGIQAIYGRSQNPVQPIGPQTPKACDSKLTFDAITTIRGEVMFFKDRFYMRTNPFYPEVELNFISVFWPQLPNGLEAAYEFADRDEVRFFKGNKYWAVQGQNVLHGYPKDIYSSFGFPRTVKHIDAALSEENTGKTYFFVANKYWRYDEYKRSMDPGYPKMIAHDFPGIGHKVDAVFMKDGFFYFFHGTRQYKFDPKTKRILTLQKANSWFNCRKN
T1 sequence (O14672 214-748): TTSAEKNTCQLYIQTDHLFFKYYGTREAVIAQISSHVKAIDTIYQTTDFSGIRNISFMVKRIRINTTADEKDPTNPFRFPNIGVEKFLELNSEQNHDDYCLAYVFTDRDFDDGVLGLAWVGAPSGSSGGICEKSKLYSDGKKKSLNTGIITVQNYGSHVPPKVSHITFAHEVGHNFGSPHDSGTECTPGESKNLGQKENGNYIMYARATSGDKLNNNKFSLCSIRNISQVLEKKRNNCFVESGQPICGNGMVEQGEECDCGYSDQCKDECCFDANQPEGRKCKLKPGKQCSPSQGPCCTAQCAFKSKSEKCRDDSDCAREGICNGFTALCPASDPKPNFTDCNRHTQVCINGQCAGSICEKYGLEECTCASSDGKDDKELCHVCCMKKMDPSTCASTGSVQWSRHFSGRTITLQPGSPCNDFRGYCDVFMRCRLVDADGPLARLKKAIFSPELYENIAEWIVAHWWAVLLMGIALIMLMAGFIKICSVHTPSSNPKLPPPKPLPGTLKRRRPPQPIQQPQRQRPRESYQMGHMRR
T3 sequence (P08253 110-660): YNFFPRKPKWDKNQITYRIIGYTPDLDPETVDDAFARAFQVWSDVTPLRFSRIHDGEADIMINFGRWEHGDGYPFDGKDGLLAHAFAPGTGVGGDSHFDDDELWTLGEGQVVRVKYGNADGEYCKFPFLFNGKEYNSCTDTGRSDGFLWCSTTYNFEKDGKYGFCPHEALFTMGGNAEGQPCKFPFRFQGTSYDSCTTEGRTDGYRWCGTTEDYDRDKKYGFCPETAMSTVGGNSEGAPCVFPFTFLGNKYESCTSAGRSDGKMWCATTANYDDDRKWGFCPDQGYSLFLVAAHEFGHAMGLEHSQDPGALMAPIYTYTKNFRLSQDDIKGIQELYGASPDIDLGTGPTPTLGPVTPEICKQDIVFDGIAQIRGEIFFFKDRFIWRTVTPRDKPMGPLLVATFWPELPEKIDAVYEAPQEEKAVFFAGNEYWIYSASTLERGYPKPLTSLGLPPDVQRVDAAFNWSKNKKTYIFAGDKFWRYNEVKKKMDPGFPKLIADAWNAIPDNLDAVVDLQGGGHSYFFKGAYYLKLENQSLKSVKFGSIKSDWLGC
T8 sequence (P78536 215-824): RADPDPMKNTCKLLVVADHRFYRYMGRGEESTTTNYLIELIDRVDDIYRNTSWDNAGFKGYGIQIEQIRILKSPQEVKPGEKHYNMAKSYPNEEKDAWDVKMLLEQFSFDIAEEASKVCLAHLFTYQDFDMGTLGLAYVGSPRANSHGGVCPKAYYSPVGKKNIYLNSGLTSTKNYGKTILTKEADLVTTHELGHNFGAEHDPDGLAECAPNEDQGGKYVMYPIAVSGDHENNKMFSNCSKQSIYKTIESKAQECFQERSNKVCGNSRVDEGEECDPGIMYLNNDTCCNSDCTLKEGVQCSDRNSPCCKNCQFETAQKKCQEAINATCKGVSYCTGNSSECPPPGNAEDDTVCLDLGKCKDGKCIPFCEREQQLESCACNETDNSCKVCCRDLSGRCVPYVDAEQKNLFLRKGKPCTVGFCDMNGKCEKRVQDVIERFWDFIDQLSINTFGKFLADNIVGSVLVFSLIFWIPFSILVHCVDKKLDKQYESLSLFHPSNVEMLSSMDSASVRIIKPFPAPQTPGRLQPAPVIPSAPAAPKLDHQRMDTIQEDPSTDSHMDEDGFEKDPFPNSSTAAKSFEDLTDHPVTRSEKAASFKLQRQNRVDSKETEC
T7 sequence (Q9ULZ9 126-565 limits assumed): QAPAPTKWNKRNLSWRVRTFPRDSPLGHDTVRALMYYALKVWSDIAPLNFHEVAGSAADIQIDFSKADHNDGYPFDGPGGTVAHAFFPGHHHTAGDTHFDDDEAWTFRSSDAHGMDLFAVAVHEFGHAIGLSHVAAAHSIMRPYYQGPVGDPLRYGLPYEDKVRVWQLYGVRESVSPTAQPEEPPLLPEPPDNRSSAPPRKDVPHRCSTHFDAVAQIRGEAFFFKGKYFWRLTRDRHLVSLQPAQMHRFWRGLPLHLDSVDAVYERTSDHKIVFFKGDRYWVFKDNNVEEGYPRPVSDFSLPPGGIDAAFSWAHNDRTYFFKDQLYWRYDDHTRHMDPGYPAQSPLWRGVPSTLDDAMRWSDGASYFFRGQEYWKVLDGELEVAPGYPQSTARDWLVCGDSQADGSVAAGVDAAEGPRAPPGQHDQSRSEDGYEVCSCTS
T5 sequence (P22894 101-467): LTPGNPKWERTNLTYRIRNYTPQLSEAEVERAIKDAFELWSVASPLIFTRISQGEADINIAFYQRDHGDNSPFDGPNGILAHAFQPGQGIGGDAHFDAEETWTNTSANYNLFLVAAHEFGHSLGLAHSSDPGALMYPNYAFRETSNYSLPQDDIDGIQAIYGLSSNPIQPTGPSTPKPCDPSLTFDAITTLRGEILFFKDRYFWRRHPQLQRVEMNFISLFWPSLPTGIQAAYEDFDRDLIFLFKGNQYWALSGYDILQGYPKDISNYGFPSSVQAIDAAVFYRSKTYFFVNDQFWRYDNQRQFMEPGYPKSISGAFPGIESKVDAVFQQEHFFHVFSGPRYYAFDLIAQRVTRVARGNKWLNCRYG
T4 sequence (P08254 100-477): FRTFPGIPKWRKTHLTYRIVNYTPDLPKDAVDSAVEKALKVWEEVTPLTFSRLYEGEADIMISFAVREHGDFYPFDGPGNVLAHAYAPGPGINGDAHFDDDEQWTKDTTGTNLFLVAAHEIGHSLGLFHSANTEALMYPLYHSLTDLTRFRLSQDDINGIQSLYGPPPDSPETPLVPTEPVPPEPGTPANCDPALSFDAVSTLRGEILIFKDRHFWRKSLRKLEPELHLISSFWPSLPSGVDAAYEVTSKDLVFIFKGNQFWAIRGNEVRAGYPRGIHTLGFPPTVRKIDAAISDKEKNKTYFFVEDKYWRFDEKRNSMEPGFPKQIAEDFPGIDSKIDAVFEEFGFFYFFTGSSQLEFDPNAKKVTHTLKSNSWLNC

## CC#CCOc1ccc(S(=O)(=O)CC(c2ccc(CNS(C)(=O)=O)cc2)N(O)C=O)cc1 (centres unmarked) [KP-457, N‐(2‐{[4‐(but‐2‐yn‐1‐yloxy)phenyl]sulfonyl}‐1‐[4‐(methylsulfonamidomethyl)phenyl]ethyl)‐N‐hydroxyformamide]
[1]
  IC50: 0.748 µM
[2]
  IC50: > 100 µM
[3]
  IC50: 0.717 µM
[4]
  IC50: 9.76 µM
[5]
  IC50: 2.2 µM
[6]
  IC50: 2.14 µM
[7]
  IC50: 7.1 µM
[8]
  IC50: 0.0106 µM
[9]
  potency relative to GM-6001, inhibition of GPIbα shedding in the cellular assay: 10 times
[10]
  effect on platelet aggregation induced by thrombin or collagen: no adverse effects
[11]; 3 days, 37°C, in the presence of KP-457, data not shown
  GPIbα expression on platelets under static culture: highly maintained
[11]; KP-457 15 µmol/L
  GPIbα retention in platelets derived from imMKCLs: consistently observed
[12]
  ristocetin-induced vWF/GPIbα-dependent aggregation of iPSC platelets generated with inhibitor: greater aggregation capability
[13]
  genotoxicity: neither genotoxicity nor systemic toxicity
